Data reported in paper PMC5329011 (Frontiers in Neuroscience, 2017).
Where two headings read alike, the source gives them in different places. Each block holds one molecule with its values, some of them ahead of it. Ends that are not written are not given here.

Experiments:
apelin receptor [1] = target: T1, apelin receptor (Homo sapiens, UniProt P35414); test: β-arrestin recruitment assay (DiscoverX); assay type: cell-based; conditions: cells expressing human apelin receptor, mean ± SEM, n = replicates/experiments, read-out: pD2, β-arrestin recruitment (converted)
T1 sequence (P35414 1-380): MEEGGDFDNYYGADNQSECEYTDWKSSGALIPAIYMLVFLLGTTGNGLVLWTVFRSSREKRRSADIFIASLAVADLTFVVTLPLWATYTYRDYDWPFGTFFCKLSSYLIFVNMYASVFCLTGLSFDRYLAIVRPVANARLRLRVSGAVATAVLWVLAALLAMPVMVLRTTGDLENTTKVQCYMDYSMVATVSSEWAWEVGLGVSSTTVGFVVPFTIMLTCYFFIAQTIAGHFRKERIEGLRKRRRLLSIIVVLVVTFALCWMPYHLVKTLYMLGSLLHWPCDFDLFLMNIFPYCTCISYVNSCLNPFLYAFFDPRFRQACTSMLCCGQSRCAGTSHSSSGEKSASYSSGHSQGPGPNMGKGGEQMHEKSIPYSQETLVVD
Protocol: (§1) Inhibition of cAMP accumulation, β-arrestin recruitment and receptor internalization by apelin isoforms, modified and truncated apelin peptides were studied using cells expressing the human apelin receptor (DiscoverX, CA, USA) as per the manufacturer's instructions. In all assays the resulting chemiluminescent signal was measured as relative light units (RLU) using a LumiLITE™ Microplate Reader (DiscoveRx, Fremont, CA). […] Agonist responses were expressed as a % of the forskolin response. […] Data were analyzed using a 4-parameter logistic equation using GraphPad Prism 6 to determine values of potency, pD2 (−log10 EC50, where EC50 is the concentration producing half maximal response) and maximum response (EMAX). n-Values are given as number of replicates/number of experiments.

apelin receptor [2] = target: T1, apelin receptor; test: β-arrestin assay without and with pre-incubation with rhACE2; assay type: cell-based
Protocol: as §1

[3] = target: T2, vascular smooth muscle apelin receptor (Homo sapiens, UniProt P35414); test: Contraction of endothelium-denuded human saphenous vein; conditions: n = 9; for Emax: % of terminal response to KCl (100 mmol/L)
T2 construct: from tissue; host or cells: endothelium-denuded human saphenous vein
T2 sequence (P35414 1-380): T1 sequence (P35414 1-380)
Protocol: (§2) Vascular smooth muscle apelin receptor-mediated contraction was exploited in a bioassay to compare the in vitro potency of apelin peptides. […] Agonist responses were expressed as a % of a terminal response to KCl (100 mmol/L). […] Data were expressed as % of the terminal response to CaCl2. Data from vascular and cardiac experiments were analyzed using a 4-prameter logistic curve (GraphPad Prism 6) to determine values of pD2 and EMAX.

[4] = human, in vivo
Protocol: Studies were performed in healthy volunteers (n = 12) in the University of Cambridge Vascular Research Unit, Addenbrooke's Hospital, Cambridge, UK. This study was carried out in accordance with the recommendations of the National Research Ethics Service Committee East of England-Cambridge Central with written informed consent from all subjects. All subjects gave written informed consent in accordance with the Declaration of Helsinki. The protocol was approved by the National Research Ethics Service Committee East of England-Cambridge Central (REC 11/EE/0305).
Exclusion criteria were ischemic heart disease, respiratory, renal or neurological disease, diabetes mellitus, hypertension, BMI > 30, BMI <18; smoker; pregnant; use of vasoactive medication or NSAIDS/aspirin within 48 h of study; current involvement in other research studies. An Omron HEM705CP oscillimetric sphygmomanometer was used to measure blood pressure and heart rate at baseline and then every 6 min in the contralateral arm. Periodically, a cuff around the upper arm was inflated for ~8 s to 40 mmHg then deflated for 4 s to interrupt venous return and during a 3 min measurement hand circulation was excluded by inflation of wrist cuffs to 200 mmHg. Changes in forearm volume were measured by mercury-in-silastic strain gauge with FBF subsequently expressed as ml/100 ml forearm volume per min. […]

apelin receptor [5] = target: T1, apelin receptor; test: Competition binding with [Glp65,Nle75,Tyr77][125I]apelin-13 in human left ventricle homogenate; parameters: from tissue; host or cells: human left ventricle homogenate
Protocol: Assays were performed in human heart as previously described (Brame et al., [2015]). […] Equilibrium was broken by centrifugation (20,000 g for 10 min, 4°C) and pellets washed with Tris-HCl buffer (50 mmol/L, pH 7.4, 4°C), re-centrifuged and pellets counted for detection of bound radioactivity. Competition binding data were analyzed using GraphPad Prism 6 (GraphPad Software, Inc. La Jolla, CA, USA) to obtain values of pKi (the negative log10 of the dissociation constant derived from the IC50 for the competing ligands, the radioligand concentration and radioligand affinity by the Cheng and Prusoff equation). Experiments were performed in triplicate.
Measurements are mean ± standard error of the mean (SEM). […] Cell assay pD2 values were compared by one-way ANOVA followed by Tukey's multiple comparison test.

apelin receptor [6] = target: T1, apelin receptor; test: Inhibition of forskolin-stimulated cAMP accumulation (DiscoverX); assay type: cell-based; conditions: 15 μmol/L forskolin, cells expressing human apelin receptor, mean ± SEM, n = replicates/experiments, read-out: pD2, inhibition of forskolin-stimulated cAMP (converted)
Protocol: as §1

apelin receptor [7] = target: T1, apelin receptor; test: Receptor internalization assay (DiscoverX); assay type: cell-based
Protocol: as §1

[8] = cited from earlier work
From the text: Apelins are modulators of vascular tone and cardiac contractility in vitro and in vivo (Japp et al., [2008], [2010]; Maguire et al., [2009]; Barnes et al., [2013]; Brame et al., [2015]).

recombinant human ACE2 = target: T3, recombinant human ACE2 (Homo sapiens, UniProt Q9BYF1); test: Incubation with rhACE2, Maldi-TOF mass spectrometry; assay type: in vitro ADME; conditions: 5 nmol peptide, 5 pmol rhACE2, MES buffer pH 6.5, 2 h, 37°C, Maldi-TOF read-out
T3 construct: purchased GSK, Ware, UK
T3 sequence (Q9BYF1 18-740 limits assumed): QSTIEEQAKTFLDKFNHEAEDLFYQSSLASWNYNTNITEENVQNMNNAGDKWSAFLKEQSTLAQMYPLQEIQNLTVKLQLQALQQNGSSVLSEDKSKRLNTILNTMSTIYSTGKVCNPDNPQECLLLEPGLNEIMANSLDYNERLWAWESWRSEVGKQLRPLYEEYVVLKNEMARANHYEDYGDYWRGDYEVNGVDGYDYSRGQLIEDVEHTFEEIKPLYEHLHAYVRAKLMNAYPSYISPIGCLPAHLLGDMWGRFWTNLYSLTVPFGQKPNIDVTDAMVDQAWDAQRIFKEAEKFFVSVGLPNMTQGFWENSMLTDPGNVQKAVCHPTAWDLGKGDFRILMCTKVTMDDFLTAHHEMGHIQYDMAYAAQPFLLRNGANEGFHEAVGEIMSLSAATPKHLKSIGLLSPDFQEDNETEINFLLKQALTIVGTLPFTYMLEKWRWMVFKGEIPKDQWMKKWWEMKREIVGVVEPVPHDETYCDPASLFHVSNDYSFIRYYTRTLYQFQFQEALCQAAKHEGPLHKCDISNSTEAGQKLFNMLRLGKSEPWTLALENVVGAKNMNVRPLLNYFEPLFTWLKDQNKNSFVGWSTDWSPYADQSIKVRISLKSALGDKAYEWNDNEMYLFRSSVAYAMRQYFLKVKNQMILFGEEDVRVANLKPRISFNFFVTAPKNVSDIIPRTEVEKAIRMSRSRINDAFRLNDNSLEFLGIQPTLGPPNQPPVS
Protocol: The reaction mixture was analyzed by Maldi-TOF mass spectrometry after samples were desalted using Millipore μC18ZipTip (MA, USA), washed with 5% acetic acid and eluted with CHCA matrix (in 50% aqueous acetonitrile containing 0.1% trifluoroacetic acid) to a stainless steel sample slide. Samples were air dried and analyzed using a Waters Maldi MicroMX time-of-flight mass spectrometer (MA, USA). Calibration was external using polyethylene glycol. The 10 Hz-laser power was just above threshold. The spectra were the sum of 1,000 shots collected from a spiral track of the sample area. Data were processed using Waters MassLynx software (MA, USA).

[9] = test system: mouse paced right ventricle; test: Inotropic action in mouse paced right ventricle; conditions: mouse paced RV, n = 6 (isoprenaline n = 4)
Protocol: as §2

rhACE2 = rhACE2 enzyme (5 pmol, GSK) in buffer (pH 6.5) containing MES (500 mmol/L), NaCl (300 mmol/L) and ZnCl2 (10 μmol/L); conditions: human, 37°C, up to 2 h
rat in vivo = conditions: cited from earlier work

Molecule: CSCC[C@H](NC(=O)[C@@H]1CCCN1C(=O)CNC(=O)[C@H](CCCCN)NC(=O)[C@H](Cc1c[nH]cn1)NC(=O)[C@H](CO)NC(=O)[C@H](CC(C)C)NC(=O)[C@H](CCCNC(=N)N)NC(=O)[C@@H]1CCCN1C(=O)[C@H](CCCNC(=N)N)NC(=O)[C@@H]1CCC(=O)N1)C(=O)N1CCC[C@H]1C(=O)O [[Pyr^1]apelin-13(1–12)]
- EC50 (apelin receptor [1]): 14.5 nM
- EMAX (% [Pyr^1]apelin-13) (apelin receptor [2]; without or with pre-incubation with rhACE2): 98 ± 5 % [Pyr^1]apelin-13
- EC50 (apelin receptor [2]; without or with pre-incubation with rhACE2 (2 h, 37°C), mean ± SEM, SEM, read-out: Potency (pD2) (converted)): 53.7 nM
- Emax [3]: 24 ± 6%
- EC50 ([3]; endothelium-denuded human saphenous vein, mean ± SEM, SEM, read-out: pD2, contraction of saphenous vein (converted)): 0.234 nM
- effect on heart rate or blood pressure [4]: No significant effects
- Ki (apelin receptor [5]; 0.1 nmol/L radioligand, 90 min, 22°C, pH 7.4, Cheng-Prusoff, mean ± SEM, n = 3, SEM): 9.12 nM
- EC50 (apelin receptor [6]): 0.501 nM
- Emax (apelin receptor [7]): 97 ± 2%
- EC50 (apelin receptor [7]; mean ± SEM, SEM, read-out: pD2, receptor internalization (converted)): 6.46 nM

Molecule: CSCC[C@H](NC(=O)[C@@H]1CCCN1C(=O)CNC(=O)[C@H](CCCCN)NC(=O)[C@H](Cc1cnc[nH]1)NC(=O)[C@H](CO)NC(=O)[C@H](CC(C)C)NC(=O)[C@H](CCCNC(=N)N)NC(=O)[C@@H]1CCCN1C(=O)[C@H](CCCNC(=N)N)NC(=O)[C@@H]1CCC(=O)N1)C(=O)N1CCC[C@H]1C(=O)N[C@@H](Cc1ccccc1)C(=O)O [[Pyr^1]apelin-13]
- half-life ([8]; humans, ref Japp et al., 2008): less than 8 min
- half-life ([8]; rat, ref Brame et al., 2015): less than 3 min
- result of incubation with rhACE2 (recombinant human ACE2): de novo generation of [Pyr^1]apelin-13(1–12), with a weak signal representing the remaining parent peptide

Molecule: CSCC[C@H](NC(=O)[C@@H]1CCCN1C(=O)CNC(=O)[C@H](CCCCN)NC(=O)[C@H](Cc1c[nH]cn1)NC(=O)[C@H](CO)NC(=O)[C@H](CC(C)C)NC(=O)[C@H](CCCNC(=N)N)NC(=O)[C@@H]1CCCN1C(=O)[C@H](CCCNC(=N)N)NC(=O)[C@@H](N)CCC(N)=O)C(=O)N1CCC[C@H]1C(=O)N[C@@H](C)C(=O)O [apelin-13(F13A), reference compound]
- Emax [3]: 23 ± 4%

Molecule: pGlu-Arg-Pro-Arg-Leu-Ser-His-Lys-Gly-Pro-Met-Pro
- not cleaved (rhACE2): did not produce shorter apelin fragments (2 h)

More lines, main results first:

- EC50 ([9]; mean ± SEM, SEM, read-out: pD2, increase in force of contraction (converted)): 13.2 nM
Molecule: CC(C)NCC(O)c1ccc(O)c(O)c1 (stereo not shown) [isoprenaline]
- EMAX, increase in force of contraction [9]: 78 ± 17 % CaCl2

- EC50 (apelin receptor [1]): 5.5 nM
- % of specific binding competed for (apelin receptor [5]; single concentration 1 μM peptide): 100%
- EC50 (apelin receptor [6]): 2 nM
Molecule: RPRLSHKGPM [apelin-13(R10M)]

- cleaved bond (rhACE2): Pro12-Phe13, 2 h
Molecule: pGlu-Arg-Pro-Arg-Leu-Ser-His-Lys-Gly-Pro-Met-Pro-Phe
- cleaved bond (rat in vivo): Pro12-Phe13, minor
